System: bilateral neovascular AMD with occult choroidal neovascularization
Test: Treatment of a patient with bilateral neovascular AMD with occult choroidal neovascularization
Type: in vivo, human
Settings: after intravitreal injection to both eyes

In the case of pegaptanib, the “vision, left eye” value (20/80 before) is reported as 20/100 and the “vision, right eye” value (CF at six feet before) is reported as “CF at six feet”.
